Legend:
[1] = system: MMP-2; experiment: Gelatin zymography, MMP-2 in A375 conditioned media; assay type: cell-based, human; settings: A375 cells, 1 μM and 5 μM, 24 h
Protocol: (§1) The potential effects of vemurafenib and its analogs on MMP-2 and MMP-9 activity in A375 cells were evaluated using gelatin zymography to detect gelatinolytic activity in conditioned media.
(§2) Gelatin zymography was carried out according to [30], using 7.5% SDS-polyacrylamide gels with 0.2% (w/v) gelatin. SDS-PAGE was run at 100 V at room temperature. Following electrophoresis, the gels were removed and placed in 2.5% (v/v) Triton X-100 to renature enzymes for 60 min. Then, gels were incubated in 50 mM Tris-HCl, 1 μM ZnCl2, 5 mM CaCl2, pH 7.5, overnight, to allow sufficient time for genatinolytic activity to occur. Following overnight incubation at 37 °C, gels were incubated in a staining solution (0.5% (v/v) Coomassie blue in a 40% methanol-10% acetic acid-water mixture) for 60 min. Following incubation, the staining solution, the gels were washed with the destaining solution (without coomassie blue) until the time to start to see the bands. Then imaged with a ChemiDoc^TM MP (BIO-RAD, Hercules, CA, USA) gel imaging system. Total protein and gelatinase activity were quantified using Image Lab™ Software 6.1 (BIO-RAD, Hercules, CA, USA).

[2] = system: non-tumor HEK293T cell line; experiment: MTS cell viability assay, HEK293T; assay type: cell-based, human; settings: for IC50: Homo sapiens, HEK-293T, 24 h treatment; for Selectivity Index: IC50 HEK293T divided by IC50 A375
Protocol: (§3) The human cutaneous melanoma cancer cell line A375, obtained from the American Type Culture Collection (ATCC, Rockville, MD, USA) and human embryonic kidney HEK293T cell line, obtained from Rio de Janeiro Cell Bank (BCRJ, Rio de Janeiro, Brazil), were cultured in Dulbecco’s Modified Eagle’s Medium (DMEM, Sigma-Aldrich, St. Louis, MO, USA) supplemented with L-glutamine (2 mM), 10% fetal bovine serum (FBS), 50 IU/mL penicillin and 50 μg/mL streptomycin (Sigma-Aldrich, St. Louis, MO, USA). Cells were maintained at 37 °C in a humidified atmosphere containing 5% CO2. Low cell passages (between 5 and 20) were used in the present study.
(§4) Cell viability was measured using an MTS method based on the conversion of the tetrazolium salt MTS (3-(4,5-dimethylthiazol-2-yl)-5-(3-carboxymethoxyphenyl)-2-(4-sulfophenyl)-2H-tetrazolium, Sigma-Aldrich, St. Louis, MO, USA) to a purple formazan in the presence of phenazine methosulfate. The enzymes responsible are NADPH-dependent dehydrogenases, which are active in viable cells. Briefly, cells (5 × 10^4/well) were seeded in 96-well plates in medium with 10% FBS; after 24 h, the complete medium was replaced with fresh medium containing 1% FBS and incubated for 24 h. Fresh stock solutions were prepared on the day of the experiment, and the cells were treated with different concentrations of vemurafenib and analogs (0.01, 0.1, 0.5, 1, 5, and 10 μM). Effects were evaluated after 24 h. Untreated cells were incubated as controls. Following drug exposure, MTS was added, and the absorbance was measured at 570 nm using a microplate reader (CLARIOStar Plus, BMG LabTech, Ortenberg, Germany).
(§5) All the values of in vitro experiments are presented as the mean ± standard error of three independent experiments. Statistical analyses were performed via a one-way ANOVA with Dunnett’s post hoc test, and statistical significance was defined as * p < 0.05. IC50 values were calculated by non-linear regression analysis using an Inhibitor vs. normalized response model curve fit, as implemented. Statistical analyses were performed with GraphPad Prism 10.1.2 (GraphPad Software Inc., San Diego, CA, USA).

[3] = system: human melanoma A375 cells; experiment: MTS cell viability assay, A375; assay type: cell-based; settings: A-375, 24 h treatment, 0.01-10 μM tested
Protocol: as §3, §4, §5

[4] = system: A375 cells; experiment: TUNEL DNA fragmentation assay; assay type: cell-based, human; settings: 5 μM, 24 h
Protocol: To detect DNA fragmentation in A375 cells, a modified apoptosis TUNEL method was used with the MEBSTAIN Apoptosis TUNEL Kit Direct (MBL International Corporation, Woburn, MA, USA) according to the manufacturer’s protocol. Briefly, cells were grown in 8-well culture slides (Corning, NY, USA) and incubated with the compounds (5 μM) for 24 h. Following treatments, the cells were washed with PBS and subsequently stained with TdT buffer, TdT solution, and Propidium Iodide, according to the manufacturer’s instructions. Experiments were conducted by fluorescent microscopy. The images were collected by an EVOS M5000 microscope (Thermo Fisher Scientific, Waltham, MA, USA).

[5] = system: MMP-9; experiment: Gelatin zymography, MMP-9 in A375 conditioned media; assay type: cell-based, human; settings: A375 cells, 1 μM and 5 μM, 24 h
Protocol: as §1, §2

| Compound | MMP-2 expression and activity [1] | IC50 ([2]; HEK293T cells, MTS) [µM] | Selectivity Index [2] | IC50 [3] [µM] | MMP-2 expression and activity ([1]; listed as RF-87A) | DNA fragmentation / TUNEL-positive apoptotic cells [4] | cytotoxicity toward HEK293T cells ([2]; HEK293T cells, MTS) | MMP-9 expression and activity [5] |
| --- | --- | --- | --- | --- | --- | --- | --- | --- |
| O=C(N/N=C/c1c[nH]c2ncc(Br)cc12)c1ccc2c(c1)CCCC2 [RF-86A (2a), (E)-N-((5-Bromo-1H-pyrrolo[2,3-b]pyridin-3-yl)methylene)-5,6,7,8-tetrahydronaphthalene-2-carbohydrazide] | reduced | 114 | 16.37 | 6.99 | – | – | – | – |
| O=C(N/N=C/c1c[nH]c2ncc(Br)cc12)c1ccccn1 [RF-87A (2b), (E)-N-((5-Bromo-1H-pyrrolo[2,3-b]pyridin-3-yl)methylene)picolinohydrazide] | reduced | 142 | 3.01 | 47.2 | reduced MMP-2 activity only at the lower concentration (1 μM) | – | – | – |
| O=C(N/N=C/c1c[nH]c2ncc(Br)cc12)c1cnccn1 [RF-94A (2c), (E)-N-((5-Bromo-1H-pyrrolo[2,3-b]pyridin-3-yl)methylene)pyrazine-2-carbohydrazide] | reduced | 25.8 | 0.49 | 53 | – | higher number of apoptotic cells | – | – |
| O=C(N/N=C/c1c[nH]c2ncc(Br)cc12)c1cnc2ccccc2n1 [RF-94B (2d), (E)-N-((5-Bromo-1H-pyrrolo[2,3-b]pyridin-3-yl)methylene)quinoxaline-2-carbohydrazide] | – | 25.5 | 0.55 | 46.3 | – | – | – | – |
| CCCS(=O)(=O)Nc1ccc(F)c(C(=O)c2c[nH]c3ncc(-c4ccc(Cl)cc4)cc23)c1F [Vemurafenib] | – | > 1000 | >1000 | 7.68 | – | – | no cytotoxicity | upregulated |

Source: paper PMC12389646, “Design, Synthesis, and Bioactivity Assessment of Modified Vemurafenib Analog” (Pharmaceuticals, 2025)
